# In patent US20120251442A1, “Methods for Treatment of Tumors by Direct Administration of a Radioisotope” (GABRIEL INSTITUTE, INC., priority 2007, published 2012):
# Assay: Radioisotope delivered into a drilled hole in the femur, tissue counting at two hours
# Type: in vivo, Sprague Dawley rat
# Procedure: A miniature drill was used to create a hole in the femur of an anesthetized Sprague Dawley rat. A miniature pump was used to deliver 3 μL of this Ho-166 composition into the hole created by the drill.
# Two hours after the injection of the dose the rat was sacrificed and dissected. Tissues/organs excised and counted included bone (opposite femur), liver, kidneys, spleen, muscle, blood, heart, lung, pancreas as well as the injected femur. Counting was done by the use of a NaI gamma detector to determine the presence of radioactivity.
# The amount of activity found in the site of injection was 92% of the injected dose. Less than 2% of the dose was found in the liver or in the rest of the bone. Total skeletal dose was determined by multiplying the % dose in the opposite femur by 25.
# Ho-166 in 0.1M HCl was obtained from MURR. The pH was measured with pH paper showing a pH of about 1. The miniature drill described above in Example 6 was used to create a hole in the femur of an anesthetized Sprague Dawley rat. The miniature pump described above was used to deliver 3 μL of Ho-166 solution into the hole created by the drill. Two hours after the injection of the dose the rat was sacrificed and dissected. The amount of activity found in the site of injection was 5% of the injected dose. However 52% of the dose was found in the liver and 23% of the dose was found in the rest of the bone. Total skeletal dose was determined by multiplying the % dose in the opposite femur by 25.
# The miniature drill described in Example 6 was used to create a hole in the femur of an anesthetized Sprague Dawley rat. The miniature pump described in Example 6 was used to deliver 2 μL of Sm-153-DOTMP solution into the hole created by the drill. Two hours after the injection of the dose the rat was sacrificed and dissected. The amount of activity found in the site of injection was 9% of the injected dose. None of the radioactivity was found in the liver and about 20% was found in the rest of the bone. Total skeletal dose was determined by multiplying the % dose in the opposite femur by 25. An average of 65% of the injected dose was found in the urine.
# [1] = two hours after injection into femur hole
compound,measurement,setting,value
O=P([O-])(O)CN1CCN(CP(=O)([O-])O)CCN(CP(=O)(O)O)CCN(CP(=O)([O-])O)CC1.[153Sm+3] [Sm-153-DOTMP],"Activity found in the site of injection, % of the injected dose",[1],9%
same,Dose found in the liver,[1],None
same,Injected dose found in the urine,[1],65%
same,Dose found in the rest of the bone,"two hours after injection, % dose in opposite femur multiplied by 25",about 20%
